Patent publication US10660933B2, “Compositions and methods for inhibition of bacterial infections in human endocervix” (priority 2015, dated 2020)
“Also recorded” adds a separate entry of the source. Ends that are not written are not given here.

Experiments:
[1] = system: human endocervical tissue explants; assay: Ng-induced epithelial exfoliation of human endocervical tissue explants (3D-CFM); format: cell-based; settings: MS11ΔOpa, 24 h; ML-7 10 μM, PIK 100 μM
Method: (§1) Human endocervical tissue explants. The tissue explants were cultured as previously described. Endocervical tissues were obtained from patients undergoing voluntary hysterectomies and received within 24 h post-surgery. Samples were cut into ˜2.5 cm (L)×0.6 cm (W)×0.3 cm (H) pieces, incubated in CMRL-1066 (GIBCO, Gaithersburg, Md.) plus antibiotics for 24 h, and then switched to antibiotic-free media for 24 h.
(§2) Immunofluorescence analysis of human endocervical tissue explants. […] The tissue was fixed, embedded in gelatin, cryopreserved, sectioned crossing the apical and basolateral surfaces of the epithelium, stained for ZO1 (BD Bioscience), pMLC (Cell Signaling Technology, Beverly, Mass.), and Ng (51) by specific antibodies, and nuclei by DAPI (Life Technologies, Carlsbad, Calif.), and analyzed using CFM (Zeiss LSM 710, Carl Zeiss Microscopy LLC, Oberkochen, Germany). […]
To quantify epithelial exfoliation, the number of Ng associated cells localized on the top of the epithelial monolayer (exfoliated) and the total number of Ng associated epithelial cells was counted by visual inspection in each randomly acquired image, to determine the percentage of exfoliated cells. […] To quantify the redistribution of pMLC, the fluorescence intensity ratios (FIR) of pMLC staining at the apical to lateral in individual epithelial cells were determined using average FI as previously described.

[2] = system: polarized T84 cells; assay: Exfoliation of polarized T84 cells treated with inhibitors alone, without Ng; format: cell-based, human; settings: no Ng inoculation, 6 h
Method: Polarized T84 cells were treated with inhibitors for 6 h, fixed, stained to visualize the cell nuclei, and imaged by 3D-CFM. The percentage of cell moving above the epithelial monolayer (dash lines) was determined from three independent experiments. Scale bar, 5 μm. *p≤0.05.
(§3) Immunofluorescence analysis of polarized epithelial cells. Cells were pretreated with or without NMII kinase inhibitors, Y27632 (10 μM, EMD Millipore), ML-7 (10 μM, EMD Millipore) and PIK (100 μM) or Ca2+ inhibitors, 2APB (10 μM, EMD Millipore) and BAPTA (50 μM, EMD Millipore) for 1 h, and incubated with Ng in the presence or absence of the inhibitors for 6 h. Cell were washed and fixed with 4% paraformaldehyde, permeabilized with 1% Triton X100, and stained with anti-E-cadherin (BD Bioscience), anti-pMLC (Cell Signaling Technology, Carlsbad, Calif.), anti-Ng antibodies, and DAPI for nuclei. Cells were analyzed by CFM. Images were acquired as Z-series of 0.37 μm slices, and 3D composites obtained. Epithelial exfoliation will be quantified using xz images as described for the tissue explants. The distribution of E-cadherin and pMLC was quantitatively analyzed by measuring the FIR at the apical junctional to the cytoplasmic area (from xy images) or at the apical to lateral surface area (from xz images) in individual cells.

[3] = system: Neisseria gonorrhoeae; assay: Ng growth; format: cell-based; settings: FIG. 13
[4] = system: polarized T84 cells; assay: Ng-induced exfoliation of polarized T84 monolayers (3D-CFM); format: cell-based, human; settings: MS11ΔOpa, 6 h; inhibitor 1 h before and during; ML-7 10 μM, PIK 100 μM, Y27632 10 μM, 2APB 10 μM
Description: (§4) To quantify epithelial exfoliation, the number of Ng associated cells localized on the top of the epithelial monolayer (exfoliated) and the total number of Ng associated epithelial cells was counted by visual inspection in each randomly acquired image, to determine the percentage of exfoliated cells. To estimate the level of Ng penetration into the subepithelium, the number of non-exfoliated epithelial cells (in clearly visible epithelial monolayers) with basal Ng staining and the total number of Ng associated epithelial cells were visually counted to calculate the percentage of infected epithelial cells with Ng penetration into the basolateral side. To evaluate the disruption of the apical junction, the number of Ng associated epithelial cells that lost continuously apical staining of the junctional protein ZO1 and the total number of Ng associated epithelial cells were visually counted to calculate the percentage of Ng associated epithelial cells with apical junction disassembly. To quantify the redistribution of pMLC, the fluorescence intensity ratios (FIR) of pMLC staining at the apical to lateral in individual epithelial cells were determined using average FI as previously described.
as §3

[5] = system: Neisseria gonorrhoeae MS11ΔOpa; assay: Ng subepithelial penetration in human endocervical tissue explants (3D-CFM); format: cell-based
Method: as §1
Immunofluorescence analysis of human endocervical tissue explants. Individual endocervical tissue pieces were incubated with Ng at a MOI of ˜10 (based on the average number of endocervical epithelial cells in endocervical tissue pieces) in the presence or absence of the MLCK inhibitor ML-7 (10 μM, EMD Millipore) and PIK (100 μM) (54) on transwells for 24 h. Unassociated Ng were removed by extensive washes at 6 and 12 h. The tissue was fixed, embedded in gelatin, cryopreserved, sectioned crossing the apical and basolateral surfaces of the epithelium, stained for ZO1 (BD Bioscience), pMLC (Cell Signaling Technology, Beverly, Mass.), and Ng (51) by specific antibodies, and nuclei by DAPI (Life Technologies, Carlsbad, Calif.), and analyzed using CFM (Zeiss LSM 710, Carl Zeiss Microscopy LLC, Oberkochen, Germany). […]
as §4, with “To evaluate the disruption of the apical junction, the number of Ng associated epithelial cells that lost continuously apical staining of the junctional protein ZO1 and the total number of Ng associated epithelial cells were visually counted to calculate the percentage of Ng associated epithelial cells with apical junction disassembly.” left out

[6] = system: phosphorylated myosin light chain (pMLC); assay: pMLC (active NMII) redistribution in Ng-inoculated polarized T84 cells (3D-CFM); format: cell-based, human
Method: Ng induce and Opa suppresses the redistribution of active non-muscle myosin II in polarized and endocervical epithelial cells. […] We examined the cellular distribution of active NMII after 6-h incubation with Ng, using antibody specific for phosphorylated myosin light chain (pMLC) and 3D-CFM. In uninfected polarized T84 (FIGS. 5A and 5C) and HEC-1-B cells (FIG. 10), pMLC was primarily localized at the apical junction. The polarized distribution of pMLC at the apical surface was quantified by the FIR of pMLC at the apical to the lateral (Apical:Lateral) membrane areas in individual cells using CFM images scanning across the apical and basolateral surfaces (FIGS. 5A and 5B). The polarized distribution pMLC at the apical junction was quantified by the FIR of pMLC at the junction to non-junction (Junction:Non-junction) areas of the apical region using CFM images scanning through the apical junction (FIGS. 5C and 5D). The apical inoculation of MS11Opa+ and MS11ΔOpa caused significant increases in apical:lateral FIR in both polarized T84 (FIGS. 5A and 5B) and HEC-1-B cells (FIG. 10), compared to the no Ng control. There were also significant increases in the junction:non-junction FIR in infected polarized T84 cells, compared to non-infected cells (FIGS. 5C and 5D). […] We further noticed that NMII at the apical surface appeared to accumulate at Ng adherent sites (FIG. 5A, middle panels, arrows).
as §3

[7] = system: Neisseria gonorrhoeae MS11; assay: Ng adherence, invasion, and transmigration assays on polarized epithelial cells; format: cell-based
Method: Ng adherence, invasion, and transmigration assays. The assays were performed as previously described. Briefly, polarized epithelial cells that were pretreated with or without the inhibitors for 1 h were incubated apically with Ng at 37° C. for 3 h for adherence and 6 h for invasion and transmigration assays with or without the inhibitors. Ng in the basolateral media were cultured and counted as transmigrated bacteria. Cells were washed and lysed to count adherent Ng. Cells were treated with gentamicin, washed, and lysed to count bacteria that were resistant to gentamicin treatment as invaded Ng.

[8] = system: phosphorylated myosin light chain (pMLC); assay: pMLC redistribution in Ng-inoculated human endocervical tissue explants; format: cell-based; settings: MS11ΔOpa-inoculated endocervical tissue explants, 24 h
Method: To explore the possibility of that Ng induced NMII redistribution occurs in vivo, we incubated human endocervical tissue explants with MS11ΔOpa for 24 h. Cryo-sections of the endocervical tissue were stained for pMLC, Ng and nuclei. In addition to its apical junction localization, pMLC was concentrated at the basal surface of the endocervical epithelial cells contacting with the basal membrane (FIG. 6A, upper panels). When incubated with MS11ΔOpa, there was a redistribution of pMLC from the basal to apical surface, resulting in a significant higher apical:lateral FIR in Ng inoculated tissue explants than that in no Ng control (FIG. 6), similar to what we observed in polarized T84 (FIGS. 5A and 5B) and HEC-1-B cells (FIG. 10). Furthermore, pMLC at the apical surface of the endocervical epithelial cells also concentrated at Ng adherent sites (FIG. 6A, second row, white arrows), but not at the membrane of cells neighboring exfoliating cells (FIG. 6A, second row, orange arrows). These observations confirm that Ng increase the relative amount of activated NMII at the apical surface of the endocervical epithelial cells in human tissue explants. […]
as §2
as §4, with “To quantify the redistribution of pMLC, the fluorescence intensity ratios (FIR) of pMLC staining at the apical to lateral in individual epithelial cells were determined using average FI as previously described.” left out

## PIK: peptide MLCK inhibitor comprising SEQ ID NO:1 (lys-arg-arg-tyr-lys-tyr-lys-lys-arg) with at least one D-amino acid; from U.S. Pat. No. 7,585,844 (KRRYKYKKR; also: at least one D-amino acid, places not given here)
[1]
  epithelial exfoliation of human endocervical tissue explants: decreased the epithelial exfoliation of human endocervical tissue explants to the basal level
[2]
  epithelial exfoliation with inhibitors alone: did not affect epithelial exfoliation
[3]
  Ng growth: suppresses Ng growth
[4]
  exfoliation of MS11ΔOpa-infected epithelial cells from T84 monolayers: reduced the exfoliation
[5]; FIG. 12A-B
  Ng penetration into human endocervical epithelia: inhibits Ng penetration; also recorded: robust inhibition
[5]; MS11ΔOpa, 24 h, ML-7 10 μM or PIK 100 μM, 27% without inhibitor
  percentage of epithelial cells with basally associated Ng: 7.1%
[6]; polarized T84, Ng 6 h
  accumulation of pMLC at Ng adherent sites: significantly reduced
[6]; polarized T84, Ng 6 h (Y27632: MS11ΔOpa), ML-7 10 μM, PIK 100 μM, Y27632 10 μM, 2APB 10 μM, BAPTA 50 μM
  junction:non-junction FIR of pMLC: significantly reduced
[6]; polarized T84, Ng 6 h, ML-7 10 μM, PIK 100 μM, Y27632 10 μM, 2APB 10 μM, BAPTA 50 μM
  apical:lateral FIR of pMLC: significantly reduced
[7]; 6 h, ML-7 10 μM, PIK 100 μM, 2APB 10 μM, Y27632 10 μM
  transmigration of MS11ΔOpa across the polarized T84 monolayer: significantly reduced the transmigration
[7]; FIG. 12C
  Ng trans-migration across polarized human epithelial cells: inhibits
[7]; MS11ΔOpa, 3 h, with inhibitors
  Ng adherence to polarized T84 cells: none of these inhibitors had any significant effect
[7]; MS11ΔOpa, 6 h, with inhibitors
  Ng invasion into polarized T84 cells (gentamicin resistance): none of these inhibitors had any significant effect
[8]
  pMLC accumulation at Ng adherent sites: significantly reduced
[8]; ML-7 10 μM, PIK 100 μM
  apical:lateral FIR of pMLC: significantly reduced
